This assay has as its system S. aureus. Briefly: Minimum inhibitory concentrations (MICs) for S. aureus of exemplary compounds (Table 2). The note with it: Staphylococcus aureus, minimum inhibitory concentrations for S. aureus; read-out: MICs. The class given is cell-based. The method, boiled down:
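Growth of S. aureus in media with or without compound, by broth microdilution in microtiter trays following NCCLS M7-A5 guidelines. Values are MICs in μg/mL.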

SMILES strings stand for the structures. Values after ≈ are worked out from the molar mass of the structure shown.

Consider `CC(=O)NC[C@H]1CN(c2ccc(-c3ccc(CNC(=O)C(N)c4cccnc4)cc3)c(F)c2)C(=O)O1` (stereo partly drawn) [Compound 4294, N-{4′-[5-(S)-(Acetylamino-methyl)-2-oxo-oxazolidin-3-yl]-2′-fluoro-biphenyl-4-ylmethyl}-2-amino-2-pyridin-3-yl-acetamide], for which the MIC worked out at 4 µg/mL (≈ 8.14 µM). `CC(=O)NC[C@H]1CN(c2ccc(-c3ccc(CNC(=O)C4CCN4C(=O)OC(C)(C)C)cc3)c(F)c2)C(=O)O1` (stereo partly drawn) [Compound 4295, 2-({4′-[5-(S)-(Acetylamino-methyl)-2-oxo-oxazolidin-3-yl]-2′-fluoro-biphenyl-4-ylmethyl}-carbamoyl)-azetidine-1-carboxylic acid tert-butyl ester]: the MIC was found to be 8 µg/mL (≈ 14.8 µM). For the compound `CC(=O)NC[C@H]1CN(c2ccc(-c3ccc(CNC(=O)C4CCN4)cc3)c(F)c2)C(=O)O1` (stereo partly drawn) [Compound 4296, Azetidine-2-carboxylic acid {4′-[5-(S)-(acetylamino-methyl)-2-oxo-oxazolidin-3-yl]-2′-fluoro-biphenyl-4-ylmethyl}-amide], the MIC is 2 µg/mL (≈ 4.54 µM).

Regarding `CC(=O)NC[C@H]1CN(c2ccc(-c3ccc(CNC(=O)[C@H](N)c4ccc(F)cc4)cc3)c(F)c2)C(=O)O1` [Compound 4297, N-{4′-[5-(S)-(Acetylamino-methyl)-2-oxo-oxazolidin-3-yl]-2′-fluoro-biphenyl-4-ylmethyl}-2-(R)-amino-2-(4-fluoro-phenyl)-acetamide], the MIC stood at 2 µg/mL (≈ 3.93 µM). As for `CC(=O)NC[C@H]1CN(c2ccc(-c3ccc(CNCC4CCN(C(=O)OC(C)(C)C)CC4)cc3)c(F)c2)C(=O)O1` [Compound 4298, 4-[({4′-[5-(S)-(Acetylamino-methyl)-2-oxo-oxazolidin-3-yl]-2′-fluoro-biphenyl-4-ylmethyl}-amino)-methyl]-piperidine-1-carboxylic acid tert-butylester], the MIC amounted to 8 µg/mL (≈ 14.4 µM). As for `CC(=O)NC[C@H]1CN(c2ccc(-c3ccc(CN(Cc4csnn4)C(N)=O)cc3)c(F)c2)C(=O)O1` [Compound 4299, N-{3-[2-Fluoro-4′-(1-[1,2,3]thiadiazol-4-ylmethyl-ureidomethyl)-biphenyl-4-yl]-2-oxo-oxazolidin-5-(S)-ylmethyl}-acetamide], the MIC was determined as 2 µg/mL (≈ 4.01 µM). For the compound `CC(=O)NC[C@H]1CN(c2ccc(-c3ccc(CNCC4CC4)cc3)c(F)c2)C(=O)O1` [Compound 4300, N-(3-{4′-[(Cyclopropylmethyl-amino)-methyl]-2-fluoro-biphenyl-4-yl}-2-oxo-oxazolidin-5-(S)-ylmethyl)-acetamide], the MIC amounted to 4 µg/mL (≈ 9.72 µM). On to `CC(=O)NC[C@H]1CN(c2ccc(-c3ccc(CNC(=O)[C@@H]4C[C@@H](O)CN4)cc3)c(F)c2)C(=O)O1` [Compound 4301, 4-(R)-Hydroxy-pyrrolidine-2-(S)-carboxylicacid {4′-[5-(S)-(acetylamino-methyl)-2-oxo-oxazolidin-3-yl]-2′-fluoro-biphenyl-4-ylmethyl}-amide], for which the MIC came out at 8 µg/mL (≈ 17 µM).

For the compound `CC(=O)NC[C@H]1CN(c2ccc(-c3ccc(CNC(=O)[C@@H](N)Cc4ccccn4)cc3)c(F)c2)C(=O)O1` [Compound 4302, N-{4′-[5-(S)-(Acetylamino-methyl)-2-oxo-oxazolidin-3-yl]-2′-fluoro-biphenyl-4-ylmethyl}-2-(S)-amino-3-pyridin-2-yl-propionamide], the MIC stood at 8 µg/mL (≈ 15.8 µM). For the compound `CC(=O)NC[C@H]1CN(c2ccc(-c3ccc(CNC(=O)[C@H](Cc4ccccn4)NC(=O)OC(C)(C)C)cc3)c(F)c2)C(=O)O1` [Compound 4303, [1-(S)-({4′-[5-(S)-(Acetylamino-methyl)-2-oxo-oxazolidin-3-yl]-2′-fluoro-biphenyl-4-ylmethyl}-carbamoyl)-2-pyridin-2-yl-ethyl]-carbamic acid tert-butyl ester], the MIC was 8 µg/mL (≈ 13.2 µM).

On to `CC(=O)NC[C@H]1CN(c2ccc(-c3ccc(CNC(=O)C4(NC(=O)OC(C)(C)C)CC4)cc3)c(F)c2)C(=O)O1` [Compound 4304, [1-({4′-[5-(S)-(Acetylamino-methyl)-2-oxo-oxazolidin-3-yl]-2′-fluoro-biphenyl-4-ylmethyl}-carbamoyl)-cyclopropyl]-carbamic acid tert-butyl ester], for which the MIC was found to be 16 µg/mL (≈ 29.6 µM). Consider `CC(=O)NC[C@H]1CN(c2ccc(-c3ccc(CNC(=O)[C@@H]4C=CCN4C(=O)OC(C)(C)C)cc3)c(F)c2)C(=O)O1` [Compound 4305, 2-({4′-[5-(S)-(Acetylamino-methyl)-2-oxo-oxazolidin-3-yl]-2′-fluoro-biphenyl-4-ylmethyl}-carbamoyl)-2,5-dihydro-pyrrole-1-(S)-carboxylic acid tert-butylester], for which the MIC came to 16 µg/mL (≈ 29 µM). `CC(=O)NC[C@H]1CN(c2ccc(-c3ccc(CNC(=O)[C@@H]4C=CCN4)cc3)c(F)c2)C(=O)O1` [Compound 4306, 2,5-Dihydro-1H-pyrrole-2-(S)-carboxylic acid {4′-[5-(S)-(acetylamino-methyl)-2-oxo-oxazolidin-3-yl]-2′-fluoro-biphenyl-4-ylmethyl}-amide]: the MIC turned out to be 2 µg/mL (≈ 4.42 µM). As for `CC(=O)NC[C@H]1CN(c2ccc(-c3ccc(CNC(=O)[C@H](N)Cc4c[nH]c5ccccc45)cc3)c(F)c2)C(=O)O1` [Compound 4307, N-{4′-[5-(S)-(Acetylamino-methyl)-2-oxo-oxazolidin-3-yl]-2′-fluoro-biphenyl-4-ylmethyl}-2-(R)-amino-3-(1H-indol-3-yl)-propionamide], the MIC is 2 µg/mL (≈ 3.68 µM). Under `CC(=O)NC[C@H]1CN(c2ccc(-c3ccc(CNC(=O)[C@@H](Cc4c[nH]c5ccccc45)NC(=O)OC(C)(C)C)cc3)c(F)c2)C(=O)O1` [Compound 4308, [1-(R)-({4′-[5-(S)-(Acetylamino-methyl)-2-oxo-oxazolidin-3-yl]-2′-fluoro-biphenyl-4-ylmethyl}-carbamoyl)-2-(1H-indol-3-yl)-ethyl]-carbamic acid tert-butyl ester] stands 128 µg/mL (≈ 199 µM).

Regarding `CC(=O)NC[C@H]1CN(c2ccc(-c3ccc(CNC(=O)[C@@H]4CCCN4)cc3)c(F)c2)C(=O)O1` [Compound 4309, Pyrrolidine-2-(S)-carboxylic acid {4′-[5-(S)-(acetylamino-methyl)-2-oxo-oxazolidin-3-yl]-2′-fluoro-biphenyl-4-ylmethyl}-amide], the MIC was 8 µg/mL (≈ 17.6 µM). With `CC(=O)NC[C@H]1CN(c2ccc(-c3ccc(CNC(=O)[C@@H]4C[C@@H](O)CN4C(=O)OC(C)(C)C)cc3)c(F)c2)C(=O)O1` [Compound 4311, 2-({4′-[5-(S)-(Acetylamino-methyl)-2-oxo-oxazolidin-3-yl]-2′-fluoro-biphenyl-4-ylmethyl}-carbamoyl)-4-(R)-hydroxy-pyrrolidine-1-(S)-carboxylic acid tert-butyl ester], the MIC was found to be 16 µg/mL (≈ 28 µM). On to `CC(=O)NC[C@H]1CN(c2ccc(-c3ccc(CNCC(=O)N4CCNCC4)cc3)c(F)c2)C(=O)O1` [Compound 4314, N-(3-{2-Fluoro-4′-[(2-oxo-2-piperazin-1-yl-ethylamino)-methyl]-biphenyl-4-yl}-2-oxo-oxazolidin-5-(S)-ylmethyl)-acetamide], for which the MIC came out at 4 µg/mL (≈ 8.27 µM). For `CC(=O)NC[C@H]1CN(c2ccc(-c3ccc(CNCC(=O)N4CCN(C(=O)OC(C)(C)C)CC4)cc3)c(F)c2)C(=O)O1` [Compound 4315, 4-[2-({4′-[5-(S)-(Acetylamino-methyl)-2-oxo-oxazolidin-3-yl]-2′-fluoro-biphenyl-4-ylmethyl}-amino)-acetyl]-piperazine-1-carboxylic acid tert-butyl ester], the MIC turned out to be 4 µg/mL (≈ 6.85 µM).
